Data on two molecules can be found in publication PMC9518288, “The mechanism and pharmacodynamics of 2-((1H-indol-3-yl)thio/sulfinyl)-N-pheny acetamide derivative as a novel inhibitor against human respiratory syncytial virus” (Journal of Enzyme Inhibition and Medicinal Chemistry, 2022).

One experiment deals with wtRSV in HEp-2 cells. As to the kind of experiment: Time-of-addition assay (RT-qPCR). The following applies: compound at 1 mM; wtRSV MOI 5, HEp-2; added at −1 to 14 h, RT-qPCR at 24 h post infection. The experiment is classed as cell-based, Human respiratory syncytial virus. On the procedure: The time-of-addition assay was performed as follows according to our previous work and literature[25]^,[27]. HEp-2 cells were plated in 96 well plates at 1.5 × 10^4 cells per well in 100 µL culture medium and incubated for 24 h (37 °C, 5% CO2). Then, HEp-2 cells were infected with wtRSV at a multiplication of infection (MOI) of 5 for 2 h (37 °C, 5% CO2). The cells were washed with PBS and the media containing drugs and compounds of 4–49 C, 1-HB-63, RSV-604, GS-5806 and Ribavirin at 1 mM, 200 μM, 10 μM, 1 mM and 100 μM, respectively, were added at −1, 0, 2, 4, 6, 8, 10, 12 and 14 h post infection. After the treated cells were further cultured and collected at 24 h post infection, the total RNA was isolated from the HEp-2 cells using TRIzol reagent (Thermo Fisher Scientific, Waltham, MA, USA) and reverse transcribed with GoScript Reverse Transcriptase kit (Promega, Madison, WI, USA). Then, RT-qPCR was performed as described previously.
Figure 2. Investigation on the underlying mechanism 4–49 C and 1-HB-63 inhibiting wtRSV replication. (A) Time-of-addition analyses of 4-49C and 1-HB-63 replication. The HEp-2 cells were infected with wtRSV at a multiplication of infection (MOI) of 5 for 2 h (37 °C, 5% CO2). The cells were washed with PBS and the media containing drug (4-49C, 1-HB-63, RSV-604, GS-5806 and Ribavirin at 1 mM, 200 μM, 10 μM, 1 mM and 100 μM, respectively.) were added at −1, 0, 2, 4, 6, 8, 10, 12 and 14 h separately and incubated till 24 h post infection. Then, the cells were harvested and lysed for RNA extraction and RT-qPCR assay. The results were a representative of three independent experiments, and shown as means ± standard and expressed as % negative control, although in many cases the bars for the standard deviation were obscured by the symbols given the small margin of values. (B) RSV adsorption analyses. […] After 24 h, we cotransfected RSV minigenome plasmid of pBR322B-RSV-Gluc with four auxiliary plasmids into BHK/T7 cells and detected the expression of Gluc in the supernatant. […]
For orientation: Quantitative PCR measures a nucleic acid by following its amplification.

Experiment [1] relates to RSV minigenome (pBR322B-RSV-Gluc) in BHK-T7 cells. As to the kind of experiment: RSV minigenome assay (Gluc expression). The experiment is classed as cell-based, Human respiratory syncytial virus. As to conditions: positive controls, concentration not given; BHK-T7, 24 h, vs DMSO. On the procedure:
BHK-T7 cells were seeded into 24 well plates at a density of 2 × 10^4 cells/well and incubated for 24 h. Then the RSV minigenome plasmid encoding […] (pBR322B-RSV-Gluc) was mixed with the helper plasmids (pCITE-N, pCITE-P, pCITE-L and pCITE-M2-1) in an Eppendorf tube containing 250 μL Opti-MEM. Meanwhile, the transfection reagent of Lipofectamine 2000 (Invitrogen, CA, USA) was diluted in another tube containing 250 μL Opti-MEM and incubated 5 min at room temperature. Then, the plasmids were mixed with the transfection reagent and incubated at room temperature for 30 min. After that, the BHK-T7 culture media were replaced with the DNA-lipo-optiMEM mixture and incubated for 4 ∼ 6 h (37 °C, 5% CO2). Then the DNA-lipo-optiMEM mixture was replaced with media containing the compounds (4–49 C at 1 mM and 1-HB-63 at 200 μM) and further incubated for 24 h (37 °C, 5% CO2). Finally, after the supernatant of the BHK-T7 cells was transferred into 96 well plate, the Gluc activity was determined by using LUMI star (BMG ABTECH, Ortenberg, Germany) following the manufacturer’s instructions after adding the chromogenic substrate of Gaussia Luciferase Flex Assay Kit (NEB, Ipswich, USA). The results were recorded by photography and/or evaluated with OPTIMA software (BMG LABTECH). The resultant signal strength was quantified as relative light unit (RLU).
Figure 2. Investigation on the underlying mechanism 4–49 C and 1-HB-63 inhibiting wtRSV replication. (A) Time-of-addition analyses of 4-49C and 1-HB-63 replication. The HEp-2 cells were infected with wtRSV at a multiplication of infection (MOI) of 5 for 2 h (37 °C, 5% CO2). The cells were washed with PBS and the media containing drug (4-49C, 1-HB-63, RSV-604, GS-5806 and Ribavirin at 1 mM, 200 μM, 10 μM, 1 mM and 100 μM, respectively.) were added at −1, 0, 2, 4, 6, 8, 10, 12 and 14 h separately and incubated till 24 h post infection. Then, the cells were harvested and lysed for RNA extraction and RT-qPCR assay. The results were a representative of three independent experiments, and shown as means ± standard and expressed as % negative control, although in many cases the bars for the standard deviation were obscured by the symbols given the small margin of values. (B) RSV adsorption analyses. After HEp-2 cells seeded into 24 well plates for 24 h, the cold media containing RSV (5 MOI) and compounds of 4–49C, 1-HB-63 and P13 at 1 mM, 200 μM and 100 μM, respectively, was added and incubated for 1 h at 4 °C. Then, the total RNA was isolated and RT-qPCR was performed. (C) RSV minigenome assay. After 24 h, we cotransfected RSV minigenome plasmid of pBR322B-RSV-Gluc with four auxiliary plasmids into BHK/T7 cells and detected the expression of Gluc in the supernatant. […]

Each structure is given as a SMILES string.

As for `Cc1cn2nc([C@@H]3CCCCN3C(=O)c3cc(Cl)ccc3NS(C)(=O)=O)cc2nc1N1CC[C@H](N)C1` [GS-5806, reference compound], the “time points of addition at which virus replication is inhibited” value in the experiment with wtRSV in HEp-2 cells was “inhibition activity only when added up to 0 and 2 h”. For the same molecule, the “inhibition of expression of Gluc gene” value in experiment [1] is recorded as “could not be inhibited”.
`NC(=O)c1ncn([C@@H]2O[C@H](CO)[C@@H](O)[C@H]2O)n1` [ribavirin, Ribavirin, reference compound]: the “inhibition of expression of Gluc gene” value in experiment [1] was “sharply contrast”.
